From patent US20240150293A1, “SPIROCYCLOHEXANE DERIVATIVES, PHARMACEUTICAL COMPOSITIONS CONTAINING THEM AND THEIR USES AS ANTI-APOPTOTIC INHIBITORS” (LES LABORATOIRES SERVIER, priority 2021, published 2024)

How the values were obtained:
[1] = target: Cy5-labelled Mcl1 (amino acids 171-321) C286S protein (UniProtKB Q07820) (Homo sapiens (Human), UniProt Q07820, C286S); assay: Inhibition of Mcl-1 by the fluorescence quenching assay (Example A, Method B); type: binding
In short: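 Eleven-point compound series incubated 2 h at room temperature with 1 nM Cy5-tagged protein and quencher-labelled PUMA peptide at 10, 20 or 400 nM in HEPES/NaCl/Tween 20, pH 7.4, 5% DMSO. IC50 for 50% fluorescence increase by 4-parameter fit, then Ki derived (complete cKi or estimated eKi).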

[2] = tested on: AMO-1 multiple myeloma xenografts; assay: Anti-tumor activity in vivo (Example D); set-up: species or system SCID mice
Description: The anti-tumor activity of the compounds of the invention was evaluated using AMO-1 multiple myeloma xenografts.
1×10^7 cells were subcutaneously grafted into immunosuppressed SCID mice. 7-10 days later, when the tumor mass had reached an average volume of about 150 mm^3, mice were treated with the various compounds once a week for 2 weeks (per os, HEC 1%/Tween 80 99:1). Tumor size was measured three times per week using electronic calipers.
At the end of the treatment cycle (d9), tumor growth inhibition (TGI) was calculated using the formula: […]
wherein DTV (Delta Tumor Volume) at Dx was calculated as follows: […]
(Tumor Volume at Dx)−(Tumor Volume at Randomization).

[3] = tested on: AMO-1 multiple myeloma xenograft; assay: Quantification of the cleaved form of PARP in vivo, IV (Example E); set-up: species or system SCID mice; conditions: single dose
Description: (§1) The ability of the compounds of the invention to induce apoptosis was evaluated in vivo using the AMO-1 multiple myeloma xenograft.
(§2) 1×10^7 cells were subcutaneously grafted into immunosuppressed SCID mice. 12-14 days later, when tumors had reached the appropriate volume, mice (3 per group) were treated once with the various compounds (IV). Tumor samples were recovered 6 or 16 hours after dosing and lysed. Cleared lysates were used for cleaved PARP quantification (as a marker of apoptosis induction) using the Meso Scale Discovery (MSD) Elisa platform test. Results are expressed as the ratio between cleaved PARP in treated mice over control mice.

[4] = tested on: NCI-H929 cell lines; assay: In vitro cytotoxicity, CellTiter-Glo (CTG) assay (Example B, Method B); type: cell-based; conditions: Homo sapiens, NCI-H929, 48 h, NCI-H929 cells, 48 h incubation, read-out: C50
In short: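 ATP-based luminescence (CellTiter-Glo) after 48 h incubation at 37° C., 5% CO2 gave NCI-H929 viability. Eleven concentrations tested, highest final 30 μM, dispensed acoustically from 10 mM DMSO stocks; C50 defined as concentration reaching 50% viability.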

[5] = tested on: AMO-1 multiple myeloma xenograft; assay: Quantification of the cleaved form of PARP in vivo, per os (Example C); set-up: species or system SCID mice; conditions: single dose per os, tumors recovered 16 hours after dosing
Description: as §1
as §2, with “(per os, HEC 1%/Tween 80 99:1).” for “(IV).”, “recovered” for “recovered 6 or”

[6] = 30 mpk per os once a week for 2 weeks
[7] = 60 mpk per os once a week for 2 weeks
[8] = 120 mpk per os once a week for 2 weeks

Chain of Cy5-labelled Mcl1 (amino acids 171-321) C286S protein (Q07820 171-321 C286S): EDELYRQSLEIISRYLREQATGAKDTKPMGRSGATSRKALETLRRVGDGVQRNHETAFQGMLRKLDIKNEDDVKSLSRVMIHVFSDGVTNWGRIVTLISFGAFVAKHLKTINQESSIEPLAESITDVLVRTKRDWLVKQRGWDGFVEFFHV

Row | Ki [1] [nM] | Structure (SMILES) | % TGI (d9) [2, 6] [%] | % TGI (d9) [2, 7] [%] | Cleaved PARP (fold to control) ([3]; 15 mpk IV, time-point 6 h) | Cleaved PARP (fold to control) ([3]; 30 mpk IV, time-point 6 h) | Cleaved PARP (fold to control) ([3]; 30 mpk IV, time-point 16 h) | IC50 [4] [nM] | Cleaved PARP (fold to control) ([5]; 60 mpk) | Cleaved PARP (fold to control) ([5]; 120 mpk) | % TGI (d9) [2, 8] [%] | Cleaved PARP (fold to control) ([3]; 7.5 mpk IV, time-point 6 h) | Cleaved PARP (fold to control) ([5]; 30 mpk)
1 | 0.0736 | C[C@@H](COc1ccnc2c1[C@H](C)CCC2)C[C@H]1Cc2cc3c(cc2[C@]12CC[C@@](Nc1ccc(F)c(Cl)c1)(C(=O)O)CC2)OCO3 [Example 845, (1r,4S,6′S)-4-(3-chloro-4-fluoroanilino)-6′-[(2R)-2-methyl-3-{[(5R)-5-methyl-5,6,7,8-tetrahydroquinolin-4-yl]oxy}propyl]-6′,7′-dihydro-2′H-spiro[cyclohexane-1,5′-indeno[5,6-d][1,3]dioxole]-4-carboxylic acid] | 88.2 | 128.3 | 188.7 fold to control | 158.2 fold to control | 116.4 fold to control | 38.3 |  |  |  |  | 
2 | 0.0801 | CCOc1ccc2c(c1)[C@]1(CC[C@@](Nc3cccc(Cl)c3)(C(=O)O)CC1)[C@@H](C[C@@H](C)COc1ccnc3c1[C@H](C)CCC3)C2 [Example 784, (1r,2′S,4S)-4-(3-chloroanilino)-6′-ethoxy-2′-[(2R)-2-methyl-3-{[(5R)-5-methyl-5,6,7,8-tetrahydroquinolin-4-yl]oxy}propyl]-2′,3′-dihydrospiro[cyclohexane-1,1′-indene]-4-carboxylic acid] | 103.6 | 112 | 227.5 fold to control | 174.2 fold to control | 129.9 fold to control | 106 |  |  |  |  | 
3 | 0.213 | COCCOc1ccc2c(c1)[C@]1(CC[C@@](Nc3cccc(Cl)c3)(C(=O)O)CC1)[C@@H](C[C@@H](C)COc1ccnc3c1[C@H](C)CCC3)C2 [Example 794, (1r,2′S,4S)-4-(3-chloroanilino)-6′-(2-methoxyethoxy)-2′-[(2R)-2-methyl-3-{[(5R)-5-methyl-5,6,7,8-tetrahydroquinolin-4-yl]oxy}propyl]-2′,3′-dihydrospiro[cyclohexane-1,1′-indene]-4-carboxylic acid] |  | 70.2 |  |  |  | 44.5 | 6.8 fold to control | 12.1 fold to control | 51.5 |  | 
4 | 0.0847 | Cc1c(Cl)cccc1N[C@]1(C(=O)O)CC[C@]2(CC1)c1cc3c(cc1C[C@@H]2C[C@@H](C)COc1ccnc2c1[C@H](C)CCC2)OCO3 [Example 847, (1r,4S,6′S)-4-(3-chloro-2-methylanilino)-6′-[(2R)-2-methyl-3-{[(5R)-5-methyl-5,6,7,8-tetrahydroquinolin-4-yl]oxy}propyl]-6′,7′-dihydro-2′H-spiro[cyclohexane-1,5′-indeno[5,6-d][1,3]dioxole]-4-carboxylic acid] |  |  | 215 fold to control |  |  | 64.3 |  |  |  | 185.9 fold to control | 
5 | 0.0267 | COCc1ccc2c(c1)[C@]1(CC[C@@](Nc3cccc(Cl)c3)(C(=O)O)CC1)[C@@H](C[C@@H](C)COc1ccnc3c1[C@H](C)CCC3)C2 [Example 919, (1r,2′S,4S)-4-(3-chloroanilino)-6′-(methoxymethyl)-2′-[(2R)-2-methyl-3-{[(5R)-5-methyl-5,6,7,8-tetrahydroquinolin-4-yl]oxy}propyl]-2′,3′-dihydrospiro[cyclohexane-1,1′-indene]-4-carboxylic acid] |  | 121 | 185.6 fold to control | 199.9 fold to control | 69.7 fold to control | 38.9 | 9.7 fold to control |  |  |  | 6.7 fold to control
6 | 0.0554 | C[C@@H](COc1ccnc2c1[C@H](C)CCC2)C[C@H]1Cc2cc3c(cc2[C@]12CC[C@@](Nc1cccc(Cl)c1)(C(=O)O)CC2)OCO3 [Example 840, (1r,4S,6′S)-4-(3-chloroanilino)-6′-[(2R)-2-methyl-3-{[(5R)-5-methyl-5,6,7,8-tetrahydroquinolin-4-yl]oxy}propyl]-6′,7′-dihydro-2′H-spiro[cyclohexane-1,5′-indeno[5,6-d][1,3]dioxole]-4-carboxylic acid] | 83.8 | 119.8 | 127.8 fold to control | 166.3 fold to control | 138.2 fold to control | 30.5 | 29.4 fold to control |  |  |  | 19.2 fold to control
7 | 0.455 | Cc1cc2c(cc1C)[C@]1(CC[C@@](Nc3cccc(Cl)c3)(C(=O)O)CC1)[C@@H](C[C@@H](C)COc1ccnc3c1[C@H](C)CCC3)C2 [Example 854, (1r,2′S,4S)-4-(3-chloroanilino)-5′,6′-dimethyl-2′-[(2R)-2-methyl-3-{[(5R)-5-methyl-5,6,7,8-tetrahydroquinolin-4-yl]oxy}propyl]-2′,3′-dihydrospiro[cyclohexane-1,1′-indene]-4-carboxylic acid] | 32 | 95.2 |  |  |  | 147 | 26.4 fold to control | 29.1 fold to control | 111.8 |  | 6.9 fold to control
